According to PMC6384738, “Structure-Function Studies of Polymyxin B Lipononapeptides” (Molecules, 2019):
Converted amounts (≈) assume the structure as drawn. *1 amine or outer side, *2 acyl side, *3 side chain or, on linkers, in order; H or OH if unused. Where a SMILES comes first, the peptide text is derived from it. Bridges are numbered along the chain shown (N, C = ends). [ ]: non-standard residue; d: D form. The star is where a group is joined. Biphenylcarbonyl(4'-Bu) = CCCCc1ccc(-c2ccc(C(=O)*)cc2)cc1; Cit = NC(=O)NCCC[C@H](N)C(=O)O; X1 = CCCCCC1CCC(C(=O)*)CC1; NH(2-ClPh) = Clc1ccccc1N*; dDab = NCC[C@@H](N)C(=O)O; hSer = N[C@@H](CCO)C(=O)O; Octanoyl = CCCCCCCC(=O)*; Dab = NCC[C@H](N)C(=O)O; CO = O=C([*:1])[*:2]

Legend:
K. pneumoniae ATCC 13833 = assay: microbe, parasite or virus in culture; settings: ATCC 13833, 18 h
Procedure: (§1) All compounds synthesised in this study were assessed for their minimum inhibitory concentrations (MIC, mg/L) by broth microdilution assay against five antibiotic-sensitive and resistant ATCC reference strains covering the Gram-negative ESKAPE pathogens (Escherichia coli, Klebsiella pneumoniae, A. baumannii, and P. aeruginosa) (Table 1, Table 2 and Table 3). Staphylococcus aureus was also included as a representative Gram-positive bacterial strain. […] Polymyxin B 1, colistin 2, vancomycin and gentamicin were used as positive inhibitor comparator compounds. Compounds were counter-screened against human proximal tubular epithelial cells (HK-2), using LDH release as a general indicator of cellular toxicity.

A. baumannii ATCC 19606 = assay: microbe, parasite or virus in culture; settings: ATCC 19606, 18 h
Procedure: as §1

S. aureus ATCC 25923 = assay: microbe, parasite or virus in culture; settings: ATCC 25923, 18 h
Procedure: as §1

K. pneumoniae BAA 2146 = assay: microbe, parasite or virus in culture; settings: BAA 2146, 18 h
Procedure: as §1

[1] = tested on: K. pneumoniae ATCC 700603; assay: microbe, parasite or virus in culture; settings: ATCC 700603, 18 h
Procedure: as §1

P. aeruginosa ATTC 27853 = assay: microbe, parasite or virus in culture; settings: ATTC 27853, 18 h
Procedure: as §1

E. coli ATCC 25922 = assay: microbe, parasite or virus in culture; settings: ATCC 25922, 18 h
Procedure: as §1

in vitro = settings: human
Procedure: as §1
Cytotoxicity to human kidney proximal tubular epithelial cell line, HK-2 (ATCC CRL-2190, sourced from ATCC; Manassas, VA, USA) was determined using the LDH assay as previously described. In brief, HK-2 cells were seeded as 2000 cells/well in black-walled clear bottom 384-well tissue culture treated plates (Corning, catalogue No. 3712) in DMEM/F12 medium (Gibco® 10565-042) containing 10% of Fetal Bovine Serum (FBS, Gibco® 10099-141) and incubated for 24 h at 37 °C, 5% CO2. Compounds were then added into each well with a concentration series from 300 µM to 2.3 µM in 2-fold dilutions. Colistin and polymyxin B were used as controls and tested at a final concentration range of 1 mM to 7.8 µM. The cells were incubated with the compounds for 24 h at 37 °C, 5% CO2. After the incubation, 5 µL of culture medium was added to 45 µL of LDH assay buffer (Biovision, K313-500) and incubated for 30 min at room temperature. The absorbance (ABS) was then read at 450 nm using a Polar Star Omega plate reader. The data was analysed by Prism 6 software (GraphPad Software, La Jolla, CA, USA). Results were calculated using the following equation: cytotoxicity %= (ABSsamples − ABSuntreated/ABS1%Triton X-100 − ABSuntreated) × 100.

| Compound | MIC K. pneumoniae ATCC 13833 (K. pneumoniae ATCC 13833) | MIC A. baumannii ATCC 19606 (A. baumannii ATCC 19606) | MIC S. aureus ATCC 25923 (S. aureus ATCC 25923) | MIC K. pneumoniae BAA 2146 (K. pneumoniae BAA 2146) | MIC K. pneumoniae ATCC 700603 [1] | MIC P. aeruginosa ATTC 27853 (P. aeruginosa ATTC 27853) | MIC E. coli ATCC 25922 (E. coli ATCC 25922) | CC50 at 24 h (in vitro) |
| --- | --- | --- | --- | --- | --- | --- | --- | --- |
| CCCCCCCC(=O)N[C@H](C(=O)N[C@@H](CCO)C(=O)N[C@H]1CCNC(=O)[C@H]([C@@H](C)O)NC(=O)[C@H](CCN)NC(=O)[C@H](CCN)NC(=O)[C@H](CC(C)C)NC(=O)[C@@H](Cc2ccccc2)NC(=O)[C@H](CCN)NC1=O)[C@@H](C)O [Compound 37] (Octanoyl-T[hSer][Dab][Dab][dF]L[Dab][Dab]T; lactam 3-C) | >32 µg/mL | >32 µg/mL | >32 µg/mL | >32 µg/mL | >32 µg/mL | >32 µg/mL | 16 µg/mL (≈ 14.7 µM) | 271 µM |
| CCCCCCCC(=O)N[C@H](C(=O)N[C@@H](CCCNC(N)=O)C(=O)N[C@H]1CCNC(=O)[C@H]([C@@H](C)O)NC(=O)[C@H](CCN)NC(=O)[C@H](CCN)NC(=O)[C@H](CC(C)C)NC(=O)[C@@H](Cc2ccccc2)NC(=O)[C@H](CCN)NC1=O)[C@@H](C)O [Compound 44] (Octanoyl-T[Cit][Dab][Dab][dF]L[Dab][Dab]T; lactam 3-C) | >32 µg/mL | >32 µg/mL | >32 µg/mL | 32 µg/mL (≈ 27.9 µM) | >32 µg/mL | >32 µg/mL | 32 µg/mL (≈ 27.9 µM) | > 300 µM |
| CC(C)C[C@@H]1NC(=O)[C@@H](Cc2ccccc2)NC(=O)[C@H](CCN)NC(=O)[C@@H](NC(=O)[C@H](CCN)NC(=O)[C@@H](NC(=O)[C@H](CCN)NC(=O)Nc2ccccc2Cl)[C@@H](C)O)CCNC(=O)[C@H]([C@@H](C)O)NC(=O)[C@H](CCN)NC(=O)[C@H](CCN)NC1=O [Compound 16] ({NH(2-ClPh)-CO}-[Dab]T[Dab][Dab][Dab][dF]L[Dab][Dab]T; lactam 4-C) |  |  |  |  |  |  |  | > 300 µM |
| CC(C)C[C@@H]1NC(=O)[C@@H](Cc2ccccc2)NC(=O)[C@H](CCN)NC(=O)[C@@H](NC(=O)[C@H](CCN)NC(=O)[C@@H](N)[C@@H](C)O)CCNC(=O)[C@H]([C@@H](C)O)NC(=O)[C@H](CCN)NC(=O)[C@H](CCN)NC1=O [PMBN, polymyxin B nonapeptide, reference compound] (H-T[Dab][Dab][Dab][dF]L[Dab][Dab]T; lactam 3-C (inferred)) | >32 µg/mL | >32 µg/mL | >32 µg/mL | >32 µg/mL | >32 µg/mL | 2 µg/mL (≈ 2.08 µM) | >32 µg/mL | > 300 µM |
| CCCCCC1CCC(C(=O)N[C@H](C(=O)N[C@H](CCN)C(=O)N[C@H]2CCNC(=O)[C@H]([C@@H](C)O)NC(=O)[C@H](CCN)NC(=O)[C@H](CCN)NC(=O)[C@H](CC(C)C)NC(=O)[C@@H](Cc3ccccc3)NC(=O)[C@H](CCN)NC2=O)[C@@H](C)O)CC1 (stereo partly drawn) [Compound 24] (X1-T[dDab][Dab][Dab][dF]L[Dab][Dab]T; lactam 3-C) | >32 µg/mL | 32 µg/mL (≈ 28 µM) |  | 4 µg/mL (≈ 3.5 µM) | 8 µg/mL (≈ 7 µM) | 4 µg/mL (≈ 3.5 µM) | 4 µg/mL (≈ 3.5 µM) | 60 µM |
| CCCCc1ccc(-c2ccc(C(=O)N[C@H](C(=O)N[C@H](CCN)C(=O)N[C@H]3CCNC(=O)[C@H]([C@@H](C)O)NC(=O)[C@H](CCN)NC(=O)[C@H](CCN)NC(=O)[C@H](CC(C)C)NC(=O)[C@@H](Cc4ccccc4)NC(=O)[C@H](CCN)NC3=O)[C@@H](C)O)cc2)cc1 [Compound 23] ({Biphenylcarbonyl(4'-Bu)}-T[dDab][Dab][Dab][dF]L[Dab][Dab]T; lactam 3-C) |  |  |  |  |  |  |  | 29 µM |
